Tests used:
[1] = target: T1, VAChT (Homo sapiens, UniProt Q16572); assay: VAChT competitive binding assay with tritiated vesamicol; conditions: read-out: Ki-VAChT; tritiated vesamicol as competitive radioligand
T1 sequence (Q16572 1-532): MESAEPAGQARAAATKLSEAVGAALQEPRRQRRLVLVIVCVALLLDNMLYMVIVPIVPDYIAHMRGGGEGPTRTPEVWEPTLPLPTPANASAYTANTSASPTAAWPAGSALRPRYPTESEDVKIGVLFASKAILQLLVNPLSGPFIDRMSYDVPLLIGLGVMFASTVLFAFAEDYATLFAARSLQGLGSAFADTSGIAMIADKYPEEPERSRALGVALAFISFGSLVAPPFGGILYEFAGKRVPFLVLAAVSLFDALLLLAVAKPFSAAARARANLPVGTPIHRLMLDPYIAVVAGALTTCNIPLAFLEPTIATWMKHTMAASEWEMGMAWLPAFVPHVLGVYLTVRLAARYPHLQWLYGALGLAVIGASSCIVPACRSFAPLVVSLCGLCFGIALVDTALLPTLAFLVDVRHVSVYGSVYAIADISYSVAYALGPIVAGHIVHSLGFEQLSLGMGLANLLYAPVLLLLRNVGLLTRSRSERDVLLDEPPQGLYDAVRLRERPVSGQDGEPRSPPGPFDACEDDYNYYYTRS

[2] = target: σ1 receptors; assay: σ1 receptor in vitro binding assay with [3H]pentazocine
[3] = target: σ2 receptors; assay: σ2 receptor in vitro binding assay with [3H]DTG
[4] = system: VAChT; conditions: cited from earlier work
[5] = system: VAChT; conditions: cited from earlier work; remark: listed apart in the source

With `O=C(c1ccc(F)cc1)C1CCN(C2Cc3c(O)cccc3CC2O)CC1` (single isomer, unassigned; (-)) [(−)-1, (−)-(1-(3,8-Dihydroxy-1,2,3,4-tetrahydronaphthalen-2-yl)piperidin-4-yl)(4-fluorophenyl)methanone] the Ki [1] was 4.62 ± 0.22 nM, the Ki ([2]; read-out: Ki-σ1, [3H]pentazocine as radioligand) was 2010 ± 450 nM and the VAChT/σ1 ([2]; selectivity ratio for VAChT over σ1) was 435. For the same compound, the Ki ([3]; read-out: Ki-σ2, [3H]DTG as radioligand) was greater than 10000 nM and the VAChT/σ2 ([3]; selectivity ratio for VAChT over σ2) was 2165.
For `OC1Cc2cccc(OCC[18F])c2CC1N1CCC(c2ccccc2)CC1` (single isomer, unassigned; (-)) [[^18F]FEOBV, (−)-5-[^18F]fluoroethoxybenzovesamicol], the “time required to equilibrate in the striatum” value ([4]; human, PET, ref [11], [16], [17]) is given as “over 6 h”.
In the case of `O=C(c1ccc(F)cc1)C1CCN(C2Cc3c(cccc3OCC[18F])CC2O)CC1` (single isomer, unassigned; (-)) [[^18F]VAT, (−)-(1-(8-(2-[^18F]fluoroethoxy)-3-hydroxy-1,2,3,4tetrahydro-naphthalen-2-yl)-piperidin-4-yl)(4-fluorophenyl)-methanone], the “standardized uptake value (SUV) at peak uptake” value ([5]; NHP brain, at 15 min, ref [23]) is listed as 5.1, the “uptake ratio of target (striatum) to non-target (cerebellum)” value ([5]; NHP brain, ref [23]) is listed as 3.0 and the “time of peak uptake in the brain” value ([5]; in vivo) is listed as 15 min.
In the case of `OC1Cc2cccc([123I])c2CC1N1CCC(c2ccccc2)CC1` (single isomer, unassigned; (-)) [[^123I]IBVM, (−)-5-[^123I]iodo-benzovesamicol], the “time of peak uptake in the target regions post-injection” value ([4]; human subjects, SPECT, ref [10], [13]–[15]) is listed as “at least 6 h”.
